Laboratory results as given in patent US10220029B2, “Pharmaceutical composition comprising glutarimide derivatives and use thereof in the treatment of eosinophilic diseases” (OBSCHESTVO S ORGANICHENNOI OTVETSTVENNOSTIYU …, priority 2013, dated 2019).
Marks after values point to notes of the source that are not given here.

Tests used:
[1] = tested on: model of bronchial asthma in guinea pigs; experiment: Content of cell elements in BAL in the model of bronchial asthma in guinea pigs; format: in vivo, guinea pig; conditions: Table 4; 14 mg/kg, 10 times of administration; n = 9
Description: Bronchial asthma in guinea pigs was induced by a standard method [Ricciardolo F L, Nijkamp F, De Rose V, Folkerts G. The guinea pig as an animal model for asthma// Current Drug Targets. 2008 June; 9(6):452-65]. The animals were immunized by one parenteral administration of 0.5 mL of a solution comprising 100 μg/mL ovalbumin (Sigma) and 100 mg/mL aluminium hydroxide. Intact animals received a physiological saline solution in an amount of 0.5 mL.
On days 29, 30 and 31, hyperactivity of the respiratory airways was provoked by inhalation administration of ovalbumin in ascending concentrations of 0.1, 0.3, and 0.5 mg/mL on days 1, 2, and 3 of the provocation, respectively. The inhalation lasted 5 minutes or until asphyxia symptoms became apparent (fall to one side). On day 32, the animals received a challenging dose of ovalbumin (1 mg/mL) for 5 minutes, while assessing a bronchospastic reaction.
The studied compounds were administered to the animals once daily every day for 6 or 10 days; the administration was terminated two days before the administration of the challenging dose of antigen.
The bronchoalveolar lavage (BAL) and cardiac cavity blood were derived from the animals 24 hours after administration of the challenging dose. The BAL was collected under anesthesia by lavaging the lungs with 5 mL of a physiological saline solution heated to 37° C. through the trachea, using a syringe dosing device.
The absolute number of cell elements in 1 μL of the lavage (cytosis) was counted in the bronchoalveolar lavage, using the Goryaev camera. Then, the BAL was centrifuged at 200 g for 10 minutes. The residue was used to prepare swabs that were fixed in methanol and stained according to Romanovsky-Giemsa to count endopulmonary cytogram.
The study comprised 3 experiments, wherein the first one was directed to the evaluation of the effect of claimed compounds 1-6 on the cell composition of the BAL, the second and the third experiments were aimed at evaluating the effect of compounds 1 and 2 on the cell composition of the BAL, the cell composition of the blood, and on the bronchospasm severity.

[2] = tested on: model of sephadex-induced eosinophilic lung inflammation in rats; experiment: Content of cell elements in BAL in the model of sephadex-induced eosinophilic lung inflammation in rats; format: in vivo, male Wistar rats; conditions: Table 9, four times, BAL 48 hours after sephadex, n = 7
Description: The model of sephadex-induced eosinophilic lung inflammation in rats was realized by a standard method [Evaldsson C, Rydén I, Uppugunduri S. Isomaltitol exacerbates neutrophilia but reduces eosinophilia: new insights into the sephadex model of lung inflammation//Int Arch Allergy Immunol. 2011; 154(4):286-94]. Sephadex G-200 (Pharmacia, Sweden) was administered one time by inhalation to male Wistar rats at a dose of 5 mg/kg. The studied compounds were administered to the animals by the intragastric route four times: 24 hours and 1 hour before and 24 hours and 45 hours after administration of sephadex. The reference preparation, budesonide, was administered according to the same scheme, by inhalation at a dose of 0.5 mg/kg. Bronchoalveolar lavage was taken 48 hours after the inhalation of sephadex, and the total lymphocyte count and leukocyte formula in the lavage were determined. The number of rats in a group was 7 to 10.

[3] = tested on: model of allergic rhinitis in guinea pigs; experiment: Content of cell elements in the nasal lavage in the model of allergic rhinitis in guinea pigs; format: in vivo, guinea pig; conditions: n = 8
Description: (§1) The model of allergic rhinitis in guinea pigs was realized by a standard method [Vishnu N. Thakare, M. M. Osama, Suresh R. Naik. […] 2013 September; 17(1):18-25].
(§2) Guinea pigs (250-300 g) were immunized with 4-time (on days 0, 7, 14, and 21) intragastric administration of ovalbumin (100 μg/pig) and aluminium hydroxide (5 mg/pig), both of which were diluted and suspended in a physiological saline solution. […], a solution of ovalbumin (60 mg/mL) was administered intranasally to each nostril of the animals at a dose 20 μL. On day 35, the animals received subcutaneously an ovalbumin solution (200 μg/mL, 25 μL); the animal back was previously shaved in the site of administration. Swelling and redness at the injection site served as a support of sensibilisation. On day 42 of the study, an ovalbumin solution (60 mg/mL, 20 μL/nostril) was administered intranasally. A group of pseudoimmunized animals was formed to control the formation of exactly allergic inflammation: on days 0, 7, 14, and 21, the pigs received a solution of aluminium hydroxide (5 mg/pig), and on days 28 and 35, they received a physiological saline solution, and on day 42, a solution of ovalbumin (60 mg/mL, 20 μL/nostril).
(§3) The studied compounds (14 mg/kg) were administered 3 times by the intragastric route: 48, 24, and 1 hour before the last administration of ovalbumin. The reference preparation, dexamethasone, was administered one time by the intragastric route, 3 hours before the last intranasal administration of ovalbumin.
(§4) Clinical manifestations, such as the number of sneezes and nose scratchings, were registered for 2 hours after the last administration of ovalbumin. Nasal lavage was taken 24 hours after the last administration of ovalbumin, and in this lavage, the total lymphocyte count and leukocyte formula were determined. The number of guinea pigs in a group was 8.

[4] = tested on: model of allergic rhinitis in guinea pigs; experiment: Clinical manifestations of allergic rhinitis in guinea pigs (sneezes, nose scratchings); format: in vivo, guinea pig; conditions: 2 hours after last ovalbumin, n = 8
Description: as §1, §2, §3, §4

[5] = tested on: model of atopic dermatitis in mice; experiment: Response index in DNCB-induced atopic (allopathic) dermatitis in mice; format: in vivo, male Balb/c mice; conditions: 10 mg/kg intragastric once daily on days 8-17 (reference preparation); n = 12
Description: The model of allopathic dermatitis was realized by a standard method [Mechanism of dinitrochlorobenzene-induced dermatitis in mice: role of specific antibodies in pathogenesis//PLoS One. 2009; 4(11)].
On days 0 and 12 of the study, 100 μL of a 2% solution of 1-chloro-2,4-dinitrobenzene (DNCB, Sigma-Aldrich, US) in 95% ethanol was applied to shaved sites in the backs of male Balb/c mice. On day 17 of the study, to the right “studied” ear of the animals, 20 μL of the alcohol solution of 2% DNCB was applied two times with a one-hour interval. The studied compound and the reference preparation, dexamethasone, were administered by the intragastric route once daily on days 8-17 of the study.
On day 18 of the study, the animals were euthanized in a CO2 camera. The weights of the “studied” and “control” ears were measured. A response index (RI) expressed in percentage of a difference in the weights of the “studied” and “control” ears was calculated.

[6] = 14 mg/kg intragastric, 3 times, nasal lavage 24 hours after last ovalbumin
[7] = 5 mg/kg intragastric, one time 3 hours before last ovalbumin (reference preparation)
[8] = 5 mg/kg intragastric, one time (reference preparation)

SMILES: Cn1cnc(CCN2C(=O)CCCC2=O)c1 [Compound 5]
- Eosinophils in BAL [1]: 1.61 ± 0.86*& 10^9/L
- Lymphocytes in BAL [1]: 1.35 ± 0.34* 10^9/L
- Monocytes in BAL [1]: 0.84 ± 0.23* 10^9/L
- Neutrophils in BAL [1]: 1.05 ± 0.33 10^9/L
- Eosinophils, content of cell elements in 1 μL of BAL ([2]; 1.8 mg/kg intragastric): 147 ± 44& in 1 μL of BAL
- Leukocytes, content of cell elements in 1 μL of BAL ([2]; 1.8 mg/kg intragastric): 2064 ± 257& in 1 μL of BAL
- Lymphocytes, content of cell elements in 1 μL of BAL ([2]; 1.8 mg/kg intragastric): 66 ± 26 in 1 μL of BAL
- Macrophages, content of cell elements in 1 μL of BAL ([2]; 1.8 mg/kg intragastric): 1576 ± 93& in 1 μL of BAL
- Neutrophils, content of cell elements in 1 μL of BAL ([2]; 1.8 mg/kg intragastric): 385 ± 57 in 1 μL of BAL
- Eosinophils, content of cell elements in 1 μL of BAL ([2]; 18 mg/kg intragastric): 34 ± 15& in 1 μL of BAL
- Leukocytes, content of cell elements in 1 μL of BAL ([2]; 18 mg/kg intragastric): 2189 ± 222& in 1 μL of BAL
- Lymphocytes, content of cell elements in 1 μL of BAL ([2]; 18 mg/kg intragastric): 121 ± 48 in 1 μL of BAL
- Macrophages, content of cell elements in 1 μL of BAL ([2]; 18 mg/kg intragastric): 1331 ± 66 & in 1 μL of BAL
- Neutrophils, content of cell elements in 1 μL of BAL ([2]; 18 mg/kg intragastric): 605 ± 124 in 1 μL of BAL
- Eosinophils, content of cell elements in 1 μL of nasal lavage [3, 6]: 575 ± 143& in 1 μL of nasal lavage
- Leukocytes, content of cell elements in 1 μL of nasal lavage [3, 6]: 1071 ± 233& in 1 μL of nasal lavage
- Lymphocytes, content of cell elements in 1 μL of nasal lavage [3, 6]: 9 ± 7 in 1 μL of nasal lavage
- Macrophages, content of cell elements in 1 μL of nasal lavage [3, 6]: 198 ± 54 in 1 μL of nasal lavage
- Neutrophils, content of cell elements in 1 μL of nasal lavage [3, 6]: 344 ± 50& in 1 μL of nasal lavage
- Number of nose scratchings/2 hours ([4]; 14 mg/kg intragastric, 3 times): 19.1 ± 4.9 &
- Number of sneezes/2 hours ([4]; 14 mg/kg intragastric, 3 times): 7.1 ± 1.3 &

SMILES: C[C@@H]1C[C@H]2[C@@H]3CCC4=CC(=O)C=C[C@]4(C)[C@@]3(F)[C@@H](O)C[C@]2(C)[C@@]1(O)C(=O)CO [Dexamethasone, dexamethasone, reference compound]
- Eosinophils, content of cell elements in 1 μL of nasal lavage [3, 7]: 365 ± 90& in 1 μL of nasal lavage
- Leukocytes, content of cell elements in 1 μL of nasal lavage [3, 7]: 1186 ± 142& in 1 μL of nasal lavage
- Lymphocytes, content of cell elements in 1 μL of nasal lavage [3, 7]: 5 ± 3 in 1 μL of nasal lavage
- Macrophages, content of cell elements in 1 μL of nasal lavage [3, 7]: 296 ± 71 in 1 μL of nasal lavage
- Neutrophils, content of cell elements in 1 μL of nasal lavage [3, 7]: 328 ± 47& in 1 μL of nasal lavage
- Number of nose scratchings/2 hours [4, 8]: 16.7 ± 1.8*&
- Number of sneezes/2 hours [4, 8]: 7.9 ± 0.8 &
- Response index (%) [5]: 65.6 ± 8*& %
